Biological target: Human Factor D (Homo sapiens (Human), UniProt P00746)
Experiment: Human Factor D assay
Format: biochemical
Conditions: Table 3; Factor D inhibition, substrate Z-L-Lys-SBzl
In short: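 Serum-purified human factor D (80 nM final) preincubated 5 min at room temperature with test compound in 50 mM Tris, 1M NaCl, pH 7.5. Z-L-Lys-SBzl substrate and DTNB then added, each at 100 μM final. IC50 from nonlinear regression of reaction rate against compound concentration.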

Sequence of Human Factor D (P00746 26-253): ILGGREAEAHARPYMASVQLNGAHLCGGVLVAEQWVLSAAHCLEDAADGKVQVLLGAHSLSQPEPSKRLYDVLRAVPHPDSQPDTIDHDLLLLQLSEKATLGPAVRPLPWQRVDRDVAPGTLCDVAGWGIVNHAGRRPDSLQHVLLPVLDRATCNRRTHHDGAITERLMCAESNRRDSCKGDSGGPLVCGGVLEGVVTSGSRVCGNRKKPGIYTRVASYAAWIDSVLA

SMILES | IC50
Cc1ncc(-c2ccc3c(c2)c(C(N)=S)nn3CC(=O)N2C[C@H](F)C[C@H]2C(=O)Nc2cccc(Br)n2)cn1 [Compound 527, (2S,4R)—N-(6-Bromopyridin-2-yl)-1-(2-(3-carbamothioyl-5-(2-methylpyrimidin-5-yl)-1H-indazol-1-yl)acetyl)-4-fluoropyrrolidine-2-carboxamide] | < 1 µM
CC(=O)c1nn(CC(=O)N2CCC[C@@H]2CC(=O)O)c2ccc(-c3cnc(C)nc3)cc12 [Compound 510, (R)-2-(1-(2-(3-acetyl-5-(2-methylpyrimidin-5-yl)-1H-indazol-1-yl)acetyl)pyrrolidin-2-yl)acetic acid] | > 10 µM

Same assay, conditions: Table 4; Factor D inhibition, substrate Z-L-Lys-SBzl

SMILES | IC50
Cc1cccc(NC(=O)[C@@H]2CC=CCN2C(=O)Cn2cc(C(N)=O)c3cc(-c4cnc5cc(C)nn5c4)ccc32)n1 [Compound 612, (S)-5-(2-Methylpyrazolo[1,5-a]pyrimidin-6-yl)-1-(2-(2-((6-methylpyridin-2-yl)carbamoyl)-3,6-dihydropyridin-1 (2H)-yl)-2-oxoethyl)-1H-indole-3-carboxamide] | > 10 µM
CCOP(=O)(OCC)OC[C@@]12C[C@@H](C(=O)Nc3cccc(Br)n3)N(C(=O)Cn3nc(C(C)=O)c4cc(-c5cnc(C)nc5)ccc43)[C@@H]1C2 [Compound 582, ((1R,3S,5S)-2-(2-(3-Acetyl-5-(2-methylpyrimidin-5-yl)-1H-indazol-1-yl)acetyl)-3-(6-bromopyridin-2-ylcarbamoyl)-2-azabicyclo[3.1.0]hexan-5-yl)methyl diethyl phosphate] | < 1 µM
Cc1cccc(NC(=O)[C@@H]2CCC(F)CCN2C(=O)Cn2cc(C(N)=O)c3cc(-c4cnc5c(c4)CCC5)ccc32)n1 (stereo partly drawn) [Compound 593, 5-(6,7-Dihydro-5H-cyclopenta[b]pyridin-3-yl)-1-(2-((2S)-5-fluoro-2-((6-methylpyridin-2-yl)carbamoyl)azepan-1-yl)-2-oxoethyl)-1H-indole-3-carboxamide] | > 10 µM
CC(=O)c1nn(CC(=O)N2C[C@H](F)C[C@H]2C(=O)Nc2cccc(-c3ccc4c(c3Cl)NCCN4)c2F)c2ccc(-c3cnc(C)nc3)cc12 [Compound 560, (2S,4R)-1-(2-(3-Acetyl-5-(2-methylpyrimidin-5-yl)-1H-indazol-1-yl)acetyl)-N-(3-(5-chloro-1,2,3,4-tetrahydroquinoxalin-6-yl)-2-fluorophenyl)-4-fluoropyrrolidine-2-carboxamide] | < 1 µM
Cc1cccc(NC(=O)[C@@H]2CCC(F)CCN2C(=O)Cn2cc(C(N)=O)c3cc(-c4cccc(C#N)c4)ccc32)n1 (stereo partly drawn) [Compound 591, 5-(3-Cyanophenyl)-1-(2-((2S)-5-fluoro-2-(6-methylpyridin-2-ylcarbamoyl)azepan-1-yl)-2-oxoethyl)-1H-indole-3-carboxamide] | > 10 µM

Reference: patent US11407738B2 (Achillion Pharmaceuticals, Inc., priority 2015, dated 2022)
